From patent publication US20020137929A1, “1 - (3-heterocyclylphenyl) isothiourea, -isourea, -guanidine and -amidine herbicidal agents” (Intellectual Property Department, BASF Aktiengesellschaft, priority 1998, published 2002)

Experiments:
[1] = system: IPOHE (Morningglory, Ivyleaf); assay: Preemergence herbicidal evaluation; type: in vivo, Ipomoea hederacea; conditions: rated 4-5 weeks after treatment
Summary of the method: (§1)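 Rating at 4–5 wk post-spray on a 0–9 visual scale vs control. Application: aqueous acetone, ~0.0156–0.500 kg/ha, to soil surface after seeding, preemergence.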

[2] = system: IPOHE (Morningglory, Ivyleaf); assay: Postemergence herbicidal evaluation; type: in vivo, Ipomoea hederacea; conditions: postemergence
Summary of the method: (§2)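 Visual 0-9 injury score (stand, vigor, malformation, size, chlorosis, appearance vs untreated) taken four to five weeks post-spray, averaged across repeat tests. Test plants about two weeks old; foliar spray of acetone/water (1:1) with 0.5% surfactant delivering ~0.0156-0.500 kg active/ha.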

[3] = system: ABUTH (Velvetleaf); assay: Preemergence herbicidal evaluation; type: in vivo, Abutilon theophrasti; conditions: rated 4-5 weeks after treatment
Summary of the method: as §1

[4] = system: ECHCG (Barnyardgrass); assay: Preemergence herbicidal evaluation; type: in vivo, Echinochloa crus-galli; conditions: rated 4-5 weeks after treatment
Summary of the method: as §1

[5] = system: ZEAMX (Corn, Field); assay: Postemergence herbicidal evaluation; type: in vivo, Zea mays; conditions: postemergence
Summary of the method: as §2

[6] = system: ZEAMX (Corn, Field); assay: Preemergence herbicidal evaluation; type: in vivo, Zea mays; conditions: rated 4-5 weeks after treatment
Summary of the method: as §1

[7] = system: CHEAL (Lambsquarters, Common); assay: Preemergence herbicidal evaluation; type: in vivo, Chenopodium album; conditions: rated 4-5 weeks after treatment
Summary of the method: as §1

[8] = system: ABUTH (Velvetleaf); assay: Postemergence herbicidal evaluation; type: in vivo, Abutilon theophrasti; conditions: postemergence
Summary of the method: as §2

[9] = system: SETVI (Foxtail, Green); assay: Postemergence herbicidal evaluation; type: in vivo, Setaria viridis; conditions: postemergence
Summary of the method: as §2

[10] = system: CHEAL (Lambsquarters, Common); assay: Postemergence herbicidal evaluation; type: in vivo, Chenopodium album; conditions: postemergence
Summary of the method: as §2

[11] = system: TRZAWR (Wheat, Winter, cv Riband); assay: Preemergence herbicidal evaluation; type: in vivo, Triticum aestivum; conditions: rated 4-5 weeks after treatment
Summary of the method: as §1

[12] = system: ECHCG (Barnyardgrass); assay: Postemergence herbicidal evaluation; type: in vivo, Echinochloa crus-galli; conditions: postemergence
Summary of the method: as §2

[13] = system: ORYSAT (Rice, Tebonnet); assay: Postemergence herbicidal evaluation; type: in vivo, Oryza sativa, (L.) Tebonnet; conditions: postemergence
Summary of the method: as §2

[14] = system: GLXMAW (Soybean, Williams); assay: Preemergence herbicidal evaluation; type: in vivo, Glycine max, (L.) Merr. cv Williams; conditions: rated 4-5 weeks after treatment
Summary of the method: as §1

[15] = system: CASOB (Sicklepod); assay: Preemergence herbicidal evaluation; type: in vivo, Cassia obtusifolia; conditions: rated 4-5 weeks after treatment
Summary of the method: as §1

## CN1C(=O)C(CC(=O)NO)SC1=Nc1cc(-n2c(=O)cc(C(F)(F)F)n(C)c2=O)c(F)cc1Cl (stereo not drawn) [Compound 162, 2-{{2-Chloro-5-[3,6-dihydro-3-methyl-2,6-dioxo-4-(trifluoromethyl)-1(2H)-pyrimidinyl]-4-fluorophenyl}imino}-3-methyl-4-oxo-5-thiazolidineacetohydroxamic acid]
[1]; 0.0156 kg/ha
  Preemergence herbicidal rating IPOHE: 0.0
[1]; 0.0313 kg/ha
  Preemergence herbicidal rating IPOHE: 0.0
[1]; 0.0625 kg/ha
  Preemergence herbicidal rating IPOHE: 4.0
[1]; 0.1250 kg/ha
  Preemergence herbicidal rating IPOHE: 9.0
[1]; 0.2500 kg/ha
  Preemergence herbicidal rating IPOHE: 9.0
[2]; rate 0.0156 kg/ha
  herbicidal rating IPOHE: 9.0
[2]; rate 0.0313 kg/ha
  herbicidal rating IPOHE: 9.0
[2]; rate 0.0625 kg/ha
  herbicidal rating IPOHE: 9.0
[3]; 0.0156 kg/ha
  Preemergence herbicidal rating ABUTH: 9.0
[3]; 0.0313 kg/ha
  Preemergence herbicidal rating ABUTH: 9.0
[3]; 0.0625 kg/ha
  Preemergence herbicidal rating ABUTH: 9.0
[3]; 0.1250 kg/ha
  Preemergence herbicidal rating ABUTH: 9.0
[3]; 0.2500 kg/ha
  Preemergence herbicidal rating ABUTH: 9.0
[4]; 0.0156 kg/ha
  Preemergence herbicidal rating ECHCG: 1.0
[4]; 0.0313 kg/ha
  Preemergence herbicidal rating ECHCG: 4.0
[4]; 0.0625 kg/ha
  Preemergence herbicidal rating ECHCG: 8.0
[4]; 0.1250 kg/ha
  Preemergence herbicidal rating ECHCG: 9.0
[4]; 0.2500 kg/ha
  Preemergence herbicidal rating ECHCG: 9.0
[5]; rate 0.0156 kg/ha
  herbicidal rating ZEAMX: 4.5
[5]; rate 0.0313 kg/ha
  herbicidal rating ZEAMX: 5.0
[5]; rate 0.0625 kg/ha
  herbicidal rating ZEAMX: 5.5
[6]; 0.0156 kg/ha
  Preemergence herbicidal rating ZEAMX: 6.0
[6]; 0.0313 kg/ha
  Preemergence herbicidal rating ZEAMX: 7.0
[6]; 0.0625 kg/ha
  Preemergence herbicidal rating ZEAMX: 9.0
[6]; 0.1250 kg/ha
  Preemergence herbicidal rating ZEAMX: 9.0
[6]; 0.2500 kg/ha
  Preemergence herbicidal rating ZEAMX: 9.0
[7]; 0.0156 kg/ha
  Preemergence herbicidal rating CHEAL: 9.0
[7]; 0.0313 kg/ha
  Preemergence herbicidal rating CHEAL: 9.0
[7]; 0.0625 kg/ha
  Preemergence herbicidal rating CHEAL: 9.0
[7]; 0.1250 kg/ha
  Preemergence herbicidal rating CHEAL: 9.0
[7]; 0.2500 kg/ha
  Preemergence herbicidal rating CHEAL: 9.0
[8]; rate 0.0156 kg/ha
  herbicidal rating ABUTH: 9.0
[8]; rate 0.0313 kg/ha
  herbicidal rating ABUTH: 9.0
[8]; rate 0.0625 kg/ha
  herbicidal rating ABUTH: 9.0
[9]; rate 0.0156 kg/ha
  herbicidal rating SETVI: 0.0
[9]; rate 0.0313 kg/ha
  herbicidal rating SETVI: 3.0
[9]; rate 0.0625 kg/ha
  herbicidal rating SETVI: 4.0
[10]; rate 0.0156 kg/ha
  herbicidal rating CHEAL: 9.0
[10]; rate 0.0313 kg/ha
  herbicidal rating CHEAL: 9.0
[10]; rate 0.0625 kg/ha
  herbicidal rating CHEAL: 9.0
[11]; 0.0156 kg/ha
  Preemergence herbicidal rating TRZAWR: 0.0
[11]; 0.0313 kg/ha
  Preemergence herbicidal rating TRZAWR: 3.0
[11]; 0.0625 kg/ha
  Preemergence herbicidal rating TRZAWR: 7.0
[11]; 0.1250 kg/ha
  Preemergence herbicidal rating TRZAWR: 7.0
[11]; 0.2500 kg/ha
  Preemergence herbicidal rating TRZAWR: 9.0
[12]; rate 0.0156 kg/ha
  herbicidal rating ECHCG: 0.0
[12]; rate 0.0313 kg/ha
  herbicidal rating ECHCG: 0.0
[12]; rate 0.0625 kg/ha
  herbicidal rating ECHCG: 0.0
[13]; rate 0.0156 kg/ha
  herbicidal rating ORYSAT: 0.5
[13]; rate 0.0313 kg/ha
  herbicidal rating ORYSAT: 1.5
[13]; rate 0.0625 kg/ha
  herbicidal rating ORYSAT: 1.5
[14]; 0.0156 kg/ha
  Preemergence herbicidal rating GLXMAW: 2.0
[14]; 0.0313 kg/ha
  Preemergence herbicidal rating GLXMAW: 2.0
[14]; 0.0625 kg/ha
  Preemergence herbicidal rating GLXMAW: 2.0
[14]; 0.1250 kg/ha
  Preemergence herbicidal rating GLXMAW: 5.0
[14]; 0.2500 kg/ha
  Preemergence herbicidal rating GLXMAW: 9.0
[15]; 0.0156 kg/ha
  Preemergence herbicidal rating CASOB: 0.0
[15]; 0.0625 kg/ha
  Preemergence herbicidal rating CASOB: 0.0
[15]; 0.1250 kg/ha
  Preemergence herbicidal rating CASOB: 0.0
[15]; 0.2500 kg/ha
  Preemergence herbicidal rating CASOB: 4.0
